Results on 34 molecules are retold here after patent US20240383852A1, “ANTI-VIRAL COMPOUNDS” (INFEX Therapeutics Limited, priority 2021, published 2024).

The target in one series is T1, SARS-CoV-2 PLpro (Severe acute respiratory syndrome coronavirus 2, UniProt P0DTD1).
T1 construct: containing 60 nM papain-like protease
Description: biochemical.

Series [1] has as its system human Hep G2 cells (ATCC HB-8065). Description: Cytotoxicity in Hep G2 cells (CellTiter-Glo). Conditions: Hep G2 cells, 100 μM test article, 24-hour exposure. It counts as cell-based. (In ATP-based viability assays light output follows the ATP content of the culture.)
Where [2] appears, read: 60 nM papain-like protease, 50 μM Z-RLRGG-AMC, pH 7.5, 37° C., read-out: SARS-CoV-2 PLpro IC50.

Each structure is given as a SMILES string. Where a name gives a salt, the structure may show the parent alone. Read-outs that look alike come from different tables or passages of the source.

In general, IC50 refers to the midpoint of a concentration-inhibition curve. Turning to `Cc1ccc(N2CCN(C)CC2)cc1C(=O)N[C@H](C)c1cccc2c1OCO2` [Example 33, N-[(1R)-1-(1,3-Benzodioxol-4-yl)ethyl]-2-methyl-5-(4-methylpiperazin-1-yl)benzamide hydrochloride salt], the IC50 at SARS-CoV-2 PLpro (setting [2]) was under 10 µM. The “% Cell Viability” value in series [1] turned out to be 95.5%.

With `COc1cc(Br)cc([C@@H](C)NC(=O)c2cc(N3C[C@H]4C[C@@H]3CN4C)ccc2C)c1` [Example 198, N-[(1R)-1-(3-Bromo-5-methoxy-phenyl)ethyl]-2-methyl-5-[(1R,4R)-5-methyl-2,5-diazabicyclo[2.2.1]heptan-2-yl]benzamide], at SARS-CoV-2 PLpro (setting [2]), the IC50 was under 2 µM. Moreover, the “% Cell Viability” value in series [1] was 1.6%.

For the molecule `COc1ccc([C@@H](C)NC(=O)c2cc(N3CCN(C)CC3)ccc2C)c2ccccc12` [Example 192, N-[(1R)-1-(4-Methoxy-1-naphthyl)ethyl]-2-methyl-5-(4-methylpiperazin-1-yl)benzamide], the concentration for half-maximal inhibition (IC50) at SARS-CoV-2 PLpro (setting [2]) was under 2 µM. Further, in series [1], the “% Cell Viability” value was found to be 6.3%.

Take `COc1ccc([C@@H](C)NC(=O)c2cc(N3CCN(C)CC3)ccc2C)cc1OCCN1CCOCC1` [Example 292, N-[(1R)-1-[4-Methoxy-3-(2-morpholinoethoxy)phenyl]ethyl]-2-methyl-5-(4-methylpiperazin-1-yl)benzamide]: at SARS-CoV-2 PLpro (setting [2]), the IC50 is under 2 µM. Further, the “% Cell Viability” value in series [1] worked out at 88.9%.

Consider `Cc1ccc(N2CCN(C)CC2)cc1C(=O)N[C@H](C)c1cccc(-c2cccc(CS(C)(=O)=O)c2)c1` [Example 52, 2-Methyl-5-(4-methylpiperazin-1-yl)-N-[(1R)-1-[3-[3 (methylsulfonylmethyl)phenyl]phenyl]ethyl]benzamide], for which the IC50 on SARS-CoV-2 PLpro (setting [2]) was under 2 µM. Also, in series [1], the “% Cell Viability” value was determined as 49.0%.

As for `Cc1ccc(N2CCN(C)CC2)cc1C(=O)N[C@H](C)c1cccc(C(O)CO)c1` (stereo partly drawn) [Example 69, N-[(1R)-1-[3-(1,2-Dihydroxyethyl)phenyl]ethyl]-2-methyl-5-(4-methylpiperazin-1-yl)benzamide], the IC50 at SARS-CoV-2 PLpro (setting [2]) was under 10 µM. Besides, the “% Cell Viability” value in series [1] is recorded as 107.0%.

`Cc1ccc(N2CCN(C)CC2)cc1C(=O)N[C@H](C)c1cccc(-c2ccc(CO)cc2)c1` [Example 56, N-[(1R)-1-[3-[4-(Hydroxymethyl)phenyl]phenyl]ethyl]-2-methyl-5-(4-methylpiperazin-1-yl)benzamide]: the IC50 at SARS-CoV-2 PLpro (setting [2]) is under 2 µM. The “% Cell Viability” value in series [1] was 75.1%.

With `Cc1ccc(N2CCN(C)CC2)cc1C(=O)N[C@H](C)c1cncc(-c2cn(C)nc2C)c1` [Example 225, N-[(1R)-1-[5-(1,3-Dimethylpyrazol-4-yl)-3-pyridyl]ethyl]-2-methyl-5-(4-methylpiperazin-1-yl)benzamide], the concentration for half-maximal inhibition (IC50) at SARS-CoV-2 PLpro (setting [2]) is under 10 µM. Also, the “% Cell Viability” value in series [1] was found to be 95.8%.

Consider `Cc1ccc(N2CCN(C)CC2)cc1C(=O)N[C@H](C)c1cccc(-c2cnc(N)nc2)c1` [Example 63, N-[(1R)-1-[3-(2-Aminopyrimidin-5-yl)phenyl]ethyl]-2-methyl-5-(4-methylpiperazin-1-yl)benzamide], for which the IC50 on SARS-CoV-2 PLpro (setting [2]) is under 2 µM. Besides, in series [1], the “% Cell Viability” value is given as 75.6%.

For `CCOc1cc(-c2cnn(C)c2)cc([C@@H](C)NC(=O)c2cc(N3CCN(C)CC3)ccc2C)c1` [Example 278, N-[(1R)-1-[3-Ethoxy-5-(1-methylpyrazol-4-yl)phenyl]ethyl]-2-methyl-5-(4-methylpiperazin-1-yl)benzamide], the half-maximal inhibitory concentration (IC50) on SARS-CoV-2 PLpro (setting [2]) is under 2 µM.

In the case of `COc1cc([C@@H](C)NC(=O)c2cc(N3CCN(C)CC3)ccc2C)ccc1O` [Example 305, N-[(1R)-1-(4-Hydroxy-3-methoxy-phenyl)ethyl]-2-methyl-5-(4-methylpiperazin-1-yl)benzamide], at SARS-CoV-2 PLpro (setting [2]), the IC50 is under 5 µM.

For `C[C@@H](NC(=O)c1ccnc(N2CC[C@@H](N)C2)n1)c1cccc2ccccc12` [Example 319, 2-[(3R)-3-Aminopyrrolidin-1-yl]-N-[(1R)-1-(1-naphthyl)ethyl]pyrimidine-4-carboxamide Hydrochloride Salt], at SARS-CoV-2 PLpro (setting [2]), the IC50 is over 100 µM.

Turning to `Cc1ccc(-c2cn[nH]c2)cc1C(=O)N[C@H](C)c1cccc2ccccc12` [Example 153, 2-Methyl-N-[(1R)-1-(1-naphthyl)ethyl]-5-(1H-pyrazol-4-yl)benzamide], on SARS-CoV-2 PLpro (setting [2]), the IC50 was under 20 µM.

As to `Cc1ccc(N2CCN(CC(=O)O)CC2)cc1C(=O)N[C@H](C)c1cccc2ccccc12` [Example 171, 2-[4-[4-Methyl-3-[[(1R)-1-(1-naphthyl)ethyl]carbamoyl]phenyl]piperazin-1-yl]acetic Acid], the concentration for half-maximal inhibition (IC50) on SARS-CoV-2 PLpro (setting [2]) was under 2 µM.

As for `Cc1ccc(-c2ccccc2)cc1C(=O)N[C@H](C)c1cccc2ccccc12` [Example 5, 2-Methyl-N-[(1R)-1-(1-naphthyl)ethyl]-5-phenyl-benzamide], on SARS-CoV-2 PLpro (setting [2]), the IC50 is over 100 µM.

For the molecule `C[C@@H](NC(=O)c1cc(-c2ccncc2)cn1C)c1cccc2ccccc12` [Example 148, 1-Methyl-N-[(1R)-1-(1-naphthyl)ethyl]-4-(4-pyridyl)pyrrole-2-carboxamide], the IC50 at SARS-CoV-2 PLpro (setting [2]) was over 100 µM.

For the molecule `C[C@@H](NC(=O)c1ccnc(N2CCN(CCO)CC2)n1)c1cccc2ccccc12` [Example 317, 2-[4-(2-Hydroxyethyl)piperazin-1-yl]-N-[(1R)-1-(1-naphthyl)ethyl]pyrimidine-4-carboxamide hydrochloride salt], the 50% inhibitory concentration (IC50) at SARS-CoV-2 PLpro (setting [2]) is over 100 µM.

In the case of `Cc1ccc(N2CCN(C)CC2)cc1C(=O)N[C@H](C)c1cc(OCC2CC2)cc(-c2cnn(C)c2)c1` [Example 277, N-[(1R)-1-[3-(Cyclopropylmethoxy)-5-(1-methylpyrazol-4-yl)phenyl]ethyl]-2-methyl-5-(4-methylpiperazin-1-yl)benzamide], on SARS-CoV-2 PLpro (setting [2]), the IC50 is under 2 µM.

With `Cc1ccc(N2CCN(C)CC2)cc1C(=O)N[C@H](C)c1cccc(CCC(=O)N(C)C)c1` [Example 84, N-[(1R)-1-[3-[3-(Dimethylamino)-3-oxo-propyl]phenyl]ethyl]-2-methyl-5-(4-methylpiperazin-1-yl)benzamide], the IC50 on SARS-CoV-2 PLpro (setting [2]) is under 20 µM.

For `C[C@@H](NC(=O)c1cc(N2CCN(CC(F)(F)F)CC2)ccc1Cl)c1cccc2ccccc12` [Example 131, 2-Chloro-N-[(1R)-1-(1-naphthyl)ethyl]-5-[4-(2,2,2-trifluoroethyl)piperazin-1-yl]benzamide], at SARS-CoV-2 PLpro (setting [2]), the IC50 was over 100 µM.

As to `C[C@@H](NC(=O)c1cccc(-c2ccnc(N3CCN(C)CC3)n2)c1)c1cccc2ccccc12` [Example 137, 3-[2-(4-Methylpiperazin-1-yl)pyrimidin-4-yl]-N-[(1R)-1-(1-naphthyl)ethyl]benzamide], the IC50 at SARS-CoV-2 PLpro (setting [2]) was over 100 µM.

Consider `C[C@@H](NC(=O)c1cccc(N2CCCCC2)c1)c1cccc2ccccc12` [Example 1, N-[(1R)-1-(1-naphthyl)ethyl]-3-(1-piperidyl)benzamide], for which, at SARS-CoV-2 PLpro (setting [2]), the IC50 was over 100 µM.

`C[C@@H](NC(=O)c1cc(N2CCN(C)CC2)ccn1)c1cccc2ccccc12` [Example 14, 4-(4-Methylpiperazin-1-yl)-N-[(1R)-1-(1-naphthyl)ethyl]pyridine-2-carboxamide]: on SARS-CoV-2 PLpro (setting [2]), the IC50 was over 100 µM.

For `Cc1ccc(-c2cccnc2)cc1C(=O)N[C@H](C)c1cccc2ccccc12` [Example 143, 2-Methyl-N-[(1R)-1-(1-naphthyl)ethyl]-5-(3-pyridyl)benzamide], the IC50 at SARS-CoV-2 PLpro (setting [2]) is under 20 µM.

On to `Cc1ccc(N2CCN(C)CC2)cc1C(=O)N[C@H](C)c1cccc(-c2ccncc2)c1` [Example 51, 2-Methyl-5-(4-methylpiperazin-1-yl)-N-[(1R)-1-[3-(4-pyridyl)phenyl]ethyl]benzamide], for which the IC50 on SARS-CoV-2 PLpro (setting [2]) is under 2 µM.

Take `COc1ccc([C@@H](C)NC(=O)c2cc(N3[C@@H]4CC[C@H]3CN(C)C4)ccc2C)cc1OC` [Example 10, N-[(1R)-1-(3,4-Dimethoxyphenyl)ethyl]-2-methyl-5-[(1S,5R)-3-methyl-3,8-diazabicyclo[3.2.1]octan-8-yl]benzamide]: the half-inhibitory concentration (IC50) on SARS-CoV-2 PLpro is under 100 µM.

Consider `Cc1ccc(N2CCN(C)CC2)cc1C(=O)N[C@H](C)c1cccc(N2CCN(C)CC2)c1` [Example 104], for which the “% Cell Viability” value in series [1] stood at 82.7%.

Take `Cc1ccc(N2CCCN(CCS(C)(=O)=O)CC2)cc1C(=O)N[C@H](C)c1cccc2ccccc12` [Example 177, 2-Methyl-5-[4-(2-methylsulfonylethyl)-1,4-diazepan-1-yl]-N-[(1R)-1-(1-naphthyl)ethyl]benzamide]: the IC50 on SARS-CoV-2 PLpro (setting [2]) is under 20 µM.

Take `Cc1ccc(-c2ccncc2)cc1C(=O)N[C@H](C)c1cccc2ccccc12` [Example 139, 2-Methyl-N-[(1R)-1-(1-naphthyl)ethyl]-5-(4-pyridyl)benzamide]: the IC50 on SARS-CoV-2 PLpro (setting [2]) is under 20 µM.

On to `Cc1cnc(N2CCN(C)CC2)nc1C(=O)N[C@H](C)c1cccc2ccccc12` [Example 8, 5-Methyl-2-(4-methylpiperazin-1-yl)-N-[(1R)-1-(naphthalen-1-yl)ethyl]pyrimidine-4-carboxamide Hydrochloride Salt], for which the IC50 on SARS-CoV-2 PLpro (setting [2]) was under 100 µM.

With `CNCCN(C)C(=O)c1cccc([C@@H](C)NC(=O)c2cc(N3CCN(C)CC3)ccc2C)c1` [Example 314, 2-Methyl-N-[(1R)-1-[3-[methyl-[2-(methylamino)ethyl]carbamoyl]phenyl]ethyl]-5-(4-methylpiperazin-1-yl)benzamide Dihydrochloride Salt], at SARS-CoV-2 PLpro (setting [2]), the IC50 is under 20 µM.

As to `C[C@@H](NC(=O)c1cc(-c2ccccc2)ccn1)c1cccc2ccccc12` [Example 3, N-[(1R)-1-(1-Naphthyl)ethyl]-4-phenyl-pyridine-2-carboxamide], the IC50 on SARS-CoV-2 PLpro (setting [2]) was over 100 µM.

For the molecule `Cc1ccc(-c2ccnc(N3CCN(CCC(=O)O)CC3)c2)cc1C(=O)N[C@H](C)c1cccc2ccccc12` [Example 169, 3-[4-[4-[4-Methyl-3-[[(1R)-1-(1-naphthyl)ethyl]carbamoyl]phenyl]-2-pyridyl]piperazin-1-yl]propanoic acid], the IC50 on SARS-CoV-2 PLpro (setting [2]) is under 20 µM.

For `C[C@@H](NC(=O)c1ccnc(N2CC[C@H](N)C2)n1)c1cccc2ccccc12` [Example 318, 2-[(3S)-3-Aminopyrrolidin-1-yl]-N-[(1R)-1-(1-naphthyl)ethyl]pyrimidine-4-carboxamide], the IC50 on SARS-CoV-2 PLpro (setting [2]) was under 100 µM.
